This is an account of results in US20250249001A1, “METHODS OF TREATING SUBSTANCE USE DISORDER WITH 4-(3-CYANOPHENYL)-6-PYRIDINYLPYRIMIDINE MGLU5 NEGATIVE ALLOSTERIC MODULATORS” (Tempero Bio, Inc., priority 2022, published 2025).

The test system of data set [1] is cue-induced reinstatement of alcohol-seeking behavior in Wistar rats. Put plainly: Cue-induced reinstatement of alcohol-seeking behavior. It counts as in vivo. The note with it: 10 mg/kg IP. An excerpt:
Operant alcohol self-administration training. Male Wistar rats (n=12) were trained to self-administer alcohol in two-lever operant conditioning chambers as described above. A total of n=11 rats completed the experiment. […] Fluid cups were inspected at the end of each session to verify intake. Extinction.
Cue-induced reinstatement test. On the next day, rats were given a reinstatement test in which lever press responses were followed by presentation of the cue light and auditory pump sound (as during training) but in the absence of ethanol reinforcement to examine cue-induced alcohol-seeking behavior (see Cue-induced reinstatement method FIG. 9A, right panel). One hour prior to the reinstatement session rats were divided into 2 equal subgroups groups and administered Compound 1 (0 or 10 mg/kg, IP) to determine if Compound 1 alters cue-induced reinstatement of alcohol-seeking behavior as compared to vehicle control. Groups were matched on body weight, baseline response totals, and extinction performance prior to drug testing. After this test, rats were returned to baseline conditions. […]

The test system of data set [2] is operant alcohol self-administration in Wistar rats. As to the kind of experiment: Operant alcohol self-administration (FR-1), acute treatment. Type of data set: in vivo. Particulars: 1-h pretreatment. The arrangement: alcohol reinforced lever press responses: dose or concentration left out as unconfirmed. The text has this:
Twelve operant conditioning chambers designed for rats (30.5 cm×24.1 cm×21.0 cm; Med Associates, Georgia, VT) were located within sound-attenuating cubicles in a devoted room to limit extraneous potential impact by extraneous environmental variables. Each cubicle was equipped with an exhaust fan that provided ventilation and masked external sounds. The chambers were electronically interfaced to a Microsoft Windows based computer that was programmed using investigator developed software to control sessions and record number of lever press responses at 100-ms intervals.
The right wall of each chamber contained a liquid receptacle and a response lever (Med Associates) that was termed the active lever. Lever press responses on the active lever activated a syringe pump (PHM-100, Med Associates) that delivered 0.1 ml of alcohol solution (ethanol 8% v/v+sucrose 2% w/v) into the receptacle over a 1.66-s period. Head entries into the liquid receptacle were recorded when an infrared photo beam was broken. A stimulus light located above the response lever was illuminated during pump activation. Lever presses during reinforcer delivery were recorded but produced no programmed consequence. […] Behavior on this lever serves as a control for motor disruptions and other nonspecific effects of test compounds. […]
Testing the efficacy of Compound 1 to reduce the reinforcing, or rewarding, effects of alcohol. Following establishment of stable baseline self-administration behavior, effects of pre-session treatment with the novel mGluR5 negative allosteric modulator Compound 1 (0, 0.3, 1, 3, and 10 mg/kg, IP) were evaluated on operant alcohol self-administration behavior (n=12 rats). […] Parameters of operant performance were measured, including total lever press responses, number of headpokes into the liquid receptacle, and rate of operant responding, which is a direct measure of positive reinforcement function. […]

For a further data set, the system named is mGluR5. Particulars: cited from earlier work.

`N#Cc1cc(Cl)cc(-c2cc(-c3ccc(F)cn3)ncn2)c1` [Compound 1, 3-chloro-5-[6-(5-fluoropyridin-2-yl)pyrimidin-4-yl]benzonitrile]: the “cue-induced reinstatement, total responses on the previously active lever” value in data set [1] (one hour prior to reinstatement session) was “blocked”. In data set [1] (vehicle ~400% of extinction level), the “cue-induced reinstatement, responding relative to extinction performance” value is given as “fully blocked”. Further, the “EtOH reinforced responses vs vehicle, multiple comparisons” value in data set [2] (10 mg/kg IP) is recorded as “reduced EtOH reinforced responses”. Further, the “alcohol reinforced lever press responses” value in data set [2] (IP (so in the source), 15-min test sessions) was “reduced alcohol reinforced lever press responses in a dose-dependent manner”. For the same molecule, the “affinity for mGluR5” value with mGluR5 (following systemic administration in rats, mice, and primates) is “high affinity”. Further, the brain penetration entry in the data set with mGluR5 (systemic administration) is given as “brain penetrant”.
